pIC50: −log10 of the molar value.
molecular target: T1, hMCHR1 (Homo sapiens, UniProt Q99705); assay: MCHR1 pIC50 determination FLIPR assay; type: cell-based; conditions: HEK293 cells stably transfected with hMCHR1; MCH challenge at 4xEC50
T1 construct: expressed in transfected cells; host or cells: HEK293
Protocol: MCHR1 plC50 Determination FLIPR™Assay: HEK293 cells stably transfected with hMCHR1 were propagated as adherent cultures at 37° C. in a humidified incubator. Cells were split 1:8 at 90% confluency two times per week. New cell stocks were recovered from storage every two months. Cells were plated in black 384-well plates (Greiner) 24 hours prior to assay at 15,000 cells/well in 50 μL DMEM/F12, 10% FBS, 2 mM I-glutamine. Compounds to be profiled were prepared by making a stock solution at 3×10^−3M in 100% DMSO. The stock solutions were serially diluted 1:4 in 100% DMSO using JANUS (PerkinElmer) liquid handling instrument to allow for an 11 point curve in singlicate. At the time of the assay, the media was removed from the cell plate by aspiration, followed by the addition of 20 μL of loading buffer (Calcium 4 Kit, […]). Following 50 min incubation at 37° C., 10 μL of compound was added to the plates via the FLIPR™ instrument (Molecular Dynamics corporation). The plates were incubated at room temperature for 15 minutes along with an MCH peptide agonist challenge plate. On the FLIPR™, a basal response was collected over 10 seconds followed by the addition of 10 μL of MCH challenge concentration at 4×EC50. Data was collected over 4 minutes and subjected to a nonlinear regression analysis curve fitting program to generate plC50s.

T1 sequence (Q99705 whole entry): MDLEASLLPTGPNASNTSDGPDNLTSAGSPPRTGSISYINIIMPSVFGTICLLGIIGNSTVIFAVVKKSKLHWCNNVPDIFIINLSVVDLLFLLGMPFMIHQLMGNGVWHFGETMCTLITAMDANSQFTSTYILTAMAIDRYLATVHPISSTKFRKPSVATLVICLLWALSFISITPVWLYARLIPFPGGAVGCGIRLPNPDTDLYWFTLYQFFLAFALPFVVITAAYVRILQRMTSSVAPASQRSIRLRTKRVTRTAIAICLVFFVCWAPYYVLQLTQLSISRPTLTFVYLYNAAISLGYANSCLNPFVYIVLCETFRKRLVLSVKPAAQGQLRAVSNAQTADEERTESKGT

pIC50	Structure (SMILES)
7.60	CCN(CC)CCNc1ccc(-n2ccc(OCc3ccc(Cl)cn3)cc2=O)cn1 [Example 8]
7.30	CS(=O)(=O)NCCNc1ccc(-n2ccc(OCc3ccc(Cl)cn3)cc2=O)cn1 [Example 20]
7.05	CCS(=O)(=O)NCCNc1ccc(-n2ccc(OCc3ccc(Cl)cn3)cc2=O)cn1 [Example 27]

Source: US20120083489A1, “BIS-PYRIDYLPYRIDONES AS MELANIN-CONCENTRATING HORMONE RECEPTOR ANTAGONISTS” (priority 2009, published 2012)
